Patent publication US8236762B2, “Peptide-cytotoxic conjugates” (IPSEN Pharma S.A.S., priority 2006, dated 2012)
Like-named read-outs stand apart in the source and are kept apart here. Numbered stars: 1 amine (or outer) side, 2 acyl side, 3 side chain; on linkers, the order of the positions; unused ones are H or OH. Square brackets hold non-standard residues; d marks the D form. Peptide text beside a SMILES is read from it. * marks the point of attachment. Pipz(1-CH2CO,4-CH2CH2NH) = O=C(CN1CCN(CCN[*:1])CC1)[*:2]; X1 = CC[C@@]1(O*)C(=O)OCc2c1cc1n(c2=O)Cc2cc3ccccc3nc2-1; Suc = O=C(CCC(=O)[*:2])[*:1]; Nle = CCCC[C@H](N)C(=O)O; AEEA = NCCOCCOCC(=O)O; GABA = NCCCC(=O)O; βAla = NCCC(=O)O

Columns and labels:
[1] = Half-life determination in mouse plasma (LC-MS); type: in vitro ADME; details: 37° C.
Procedure: (§1) Samples containing approximately 50 μg/ml up to and including approximately 500 μg/ml of test compound according to Formula IA or IB or II was added to 450 μl human or mouse plasma, vortexed briefly and incubated at 37° C. At various time intervals, e.g., 0, 0.5, 1, 2, 4, 6, 8, 24, 36 and 48 hours, 50 μl of the compound-plasma mixture was added to 150 μl acetonitrile in a microcentrifuge tube. The mixture was vortexed, centrifuged for 5 minutes at 10K RPM, and 135 μl of supernatant was transferred to an injection vial. The recovered supernatant was analyzed by using a liquid chromatography-mass spectrophotometer system (LC-MS) consisting of a Finnigan Deca XP® mass spectrometer with an ESI probe at the positive ion mode. HPLC separation was carried out on a Luna 3μ C8 (2)® 3×50 mm column with a gradient decreasing from 100% A to 80% B for 10 minutes at a flow rate of 0.25 ml/min. Buffer A was 0.1% acetic acid in water and buffer B was 0.1% acetic acid acetonitrile.

[2] = Half-life determination in human plasma (LC-MS); type: in vitro ADME; details: 37° C.
Procedure: as §1

[3] = target: T1, bombesin/GRP receptor (Rattus norvegicus, UniProt P52500); test: Bombesin/GRP radioligand binding (AR42J rat pancreas cell membranes); details: read-out: Ki bombesin receptor ± (SEM)
T1 construct: AR42J rat pancreas cells expressing the native bombesin/GRP receptor; endogenous in cells; host or cells: AR42J rat pancreas cells
Procedure: Membranes were prepared for radioligand binding studies by homogenization of AR42J rat pancreas cells expressing the native bombesin/GRP receptor in 20 ml of ice-cold 50 mM Tris-HCl with a Brinkman Polytron® (Westbury, N.Y., U.S.A.) at settings of 6, 15 seconds. The homogenates were washed twice by centrifugation (39,000 g/10 minutes) and the final pellets were resuspended in 50 mM Tris-HCl containing 2.5 mM MgCl2 and 0.1% BSA. […] The filters were then washed three times with 5-ml aliquots of ice-cold 50 mM Tris-HCl. The bound radioactivity trapped on the filters was counted by gamma spectrometry (Wallac LKB®, Gaithersburg, Md., U.S.A.).

[4] = target: T2, hSSTR-1 (Homo sapiens, UniProt P30872); test: Somatostatin receptor radioligand binding, hSSTR-1 (CHO-K1 membranes); details: read-out: Ki hSSTR1 ± (SEM)
T2 construct: expressed in transfected cells; host or cells: CHO-K1
Procedure: Membranes for in vitro receptor binding assays were obtained by homogenizing (Polytron setting 6, 15 sec) CHO-K1 cells expressing human somatostatin receptor subtypes hSSTR-1, hSSTR-2, hSSTR-3, hSSTR-4 or hSSTR-5 in ice-cold 50 mM Tris-HCl. The homogenized cells were centrifuged twice at 39,000 g for 10 minutes with an intermediate resuspension in fresh buffer. The final pellets were resuspended in 10 mM Tris-HCl to prepare the cell membrane homogenate for use in the binding assay.
The final assay volume was 0.3 ml.
The cell membrane homogenate was incubated with the radioligands for 90 minutes at 25° C. The incubations were terminated by rapid filtration through GF/C filters pre-soaked in 0.3% polyethylenimine using a Brandel® filtration manifold (Gaithersberg, Md., U.S.A.). Each tube and filter was washed three times with 5-ml aliquots of ice-cold buffer. Specific binding was defined as the total radioligand bound minus that bound in the presence of 1000 nM SRIF-14 (for hSSTR-1, hSSTR-3, hSSTR-4 or hSSTR-5), or 1000 nM DPhe-c(Cys-Tyr-D-Trp-Lys-Abu-Cys)-Thr-NH2 for hSSTR-2.

[5] = target: T3, hSSTR-3 (Homo sapiens, UniProt P32745); test: Somatostatin receptor radioligand binding, hSSTR-3 (CHO-K1 membranes); details: read-out: Ki hSSTR3 ± (SEM)
T3 construct: expressed in transfected cells; host or cells: CHO-K1
Procedure: (§2) For the hSSTR-1, hSSTR-3, and hSSTR-4 assays, aliquots of the membrane preparations were incubated for 90 minutes at 25° C. with 0.05 nM [^125I-Tyr11]SRIF-14 in 50 mM HEPES (pH 7.4) buffer containing 0.2% BSA and 5 mM MgCl2. The final assay volume was 0.3 ml. For the hSSTR-2 and hSSTR-5 assays, [^125I]-[4-(2-hydroxyethyl)]-1-piperazinylacetyl-D-Phe-c(Cys-Tyr-D-Trp-Lys-Abu-Cys)-Thr-NH2 (0.05 nM) and [^125I]-D-Phe-c(Cys-Tyr-D-Trp-Lys-Val-Cys)-Thr-NH2 were employed as the radioligands, respectively.

[6] = target: T4, hSSTR-4 (Homo sapiens, UniProt P31391); test: Somatostatin receptor radioligand binding, hSSTR-4 (CHO-K1 membranes); details: read-out: Ki hSSTR4 ± (SEM)
T4 construct: expressed in transfected cells; host or cells: CHO-K1
Procedure: as §2

[7] = [125I-Tyr11]SRIF-14, value of 1000 indicates at least 1000

T3 sequence (P32745 whole entry): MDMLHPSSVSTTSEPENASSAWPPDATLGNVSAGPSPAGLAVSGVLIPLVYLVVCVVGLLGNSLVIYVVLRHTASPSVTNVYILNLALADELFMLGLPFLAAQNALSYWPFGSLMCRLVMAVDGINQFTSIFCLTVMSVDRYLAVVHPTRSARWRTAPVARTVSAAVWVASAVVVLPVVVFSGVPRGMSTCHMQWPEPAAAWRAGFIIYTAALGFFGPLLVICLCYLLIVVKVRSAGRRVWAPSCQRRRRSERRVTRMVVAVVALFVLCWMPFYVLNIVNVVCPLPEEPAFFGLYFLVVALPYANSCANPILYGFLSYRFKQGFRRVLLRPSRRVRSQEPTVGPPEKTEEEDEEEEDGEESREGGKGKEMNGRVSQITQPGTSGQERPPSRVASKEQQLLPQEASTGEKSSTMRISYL
T2 sequence (P30872 whole entry): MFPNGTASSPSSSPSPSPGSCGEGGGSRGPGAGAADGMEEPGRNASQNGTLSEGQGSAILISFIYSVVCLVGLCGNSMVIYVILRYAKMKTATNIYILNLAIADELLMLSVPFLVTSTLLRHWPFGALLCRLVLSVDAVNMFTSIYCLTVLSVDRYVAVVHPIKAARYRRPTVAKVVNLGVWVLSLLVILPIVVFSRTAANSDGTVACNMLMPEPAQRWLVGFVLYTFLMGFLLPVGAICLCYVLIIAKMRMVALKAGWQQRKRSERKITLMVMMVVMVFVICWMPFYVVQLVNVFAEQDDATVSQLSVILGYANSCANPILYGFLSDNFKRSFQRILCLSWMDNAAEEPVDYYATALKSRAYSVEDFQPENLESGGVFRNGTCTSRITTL
T4 sequence (P31391 whole entry): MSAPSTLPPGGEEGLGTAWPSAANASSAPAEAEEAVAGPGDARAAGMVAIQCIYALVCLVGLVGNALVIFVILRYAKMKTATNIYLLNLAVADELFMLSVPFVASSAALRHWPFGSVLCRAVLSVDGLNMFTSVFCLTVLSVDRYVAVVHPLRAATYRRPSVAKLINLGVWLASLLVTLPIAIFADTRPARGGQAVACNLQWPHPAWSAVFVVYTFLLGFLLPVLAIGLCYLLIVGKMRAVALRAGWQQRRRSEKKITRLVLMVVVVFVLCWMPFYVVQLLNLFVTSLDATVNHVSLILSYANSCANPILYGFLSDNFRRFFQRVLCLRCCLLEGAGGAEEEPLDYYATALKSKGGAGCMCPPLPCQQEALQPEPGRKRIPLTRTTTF
T1 sequence (P52500 whole entry): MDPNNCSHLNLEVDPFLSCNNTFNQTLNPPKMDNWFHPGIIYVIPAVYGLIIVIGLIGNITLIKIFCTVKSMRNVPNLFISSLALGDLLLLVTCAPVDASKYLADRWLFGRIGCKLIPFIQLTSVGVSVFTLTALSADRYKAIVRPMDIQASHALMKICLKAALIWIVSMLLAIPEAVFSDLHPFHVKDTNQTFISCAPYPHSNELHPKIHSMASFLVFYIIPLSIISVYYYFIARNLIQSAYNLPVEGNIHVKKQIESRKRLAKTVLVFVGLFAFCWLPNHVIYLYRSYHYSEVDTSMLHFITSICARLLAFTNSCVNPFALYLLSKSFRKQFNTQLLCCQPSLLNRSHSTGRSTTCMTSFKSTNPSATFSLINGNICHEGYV

Row | Compound | half-life [1] | half-life [2] | Ki [3] | Ki [4] | Ki [5] | Ki [6] | Ki [4, 7] | Ki [5, 7] | Ki [6, 7]
1 | CCCC[C@H](NC(=O)[C@H](CC(C)C)NC(=O)[C@H](Cc1c[nH]cn1)NC(=O)CCNC(=O)[C@@H](NC(=O)[C@H](C)NC(=O)[C@H](Cc1c[nH]c2ccccc12)NC(=O)[C@H](CCC(N)=O)NC(=O)CCCNC(=O)[C@H](CC(C)C)NC(=O)CN1CCN(CCNC(=O)COCCOCCNC(=O)COCCOCCNC(=O)COCCOCCNC(=O)COCCOCCNC(=O)CCC(=O)NCC(=O)O[C@]2(CC)C(=O)OCc3c2cc2n(c3=O)Cc3cc4ccccc4nc3-2)CC1)C(C)C)C(N)=O [Example 22, Camptothecin-rvGly-Suc-(Doc)4-Aepa-Leu-Gaba-Gln-Trp-Ala-Val-β-Ala-His-Leu-Nle-NH2] ({X1-Gly-Suc-AEEA-AEEA-AEEA-AEEA}-[Pipz(1-CH2CO,4-CH2CH2NH)]L[GABA]QWAV[βAla]HL[Nle]-NH2) | 126 min | 108 min | 18.2 nM |  |  |  |  |  | 
2 | CC[C@@H]1NC(=O)[C@H](CCCCN)NC(=O)[C@@H](Cc2c[nH]c3ccccc23)NC(=O)[C@H](Cc2ccc(O)cc2)NC(=O)[C@@H](NC(=O)[C@@H](Cc2ccccc2)NC(=O)CN2CCN(CCNC(=O)COCCOCCNC(=O)COCCOCCNC(=O)COCCOCCNC(=O)COCCOCCNC(=O)CCC(=O)N[C@@H](C)C(=O)O[C@]3(CC)C(=O)OCc4c3cc3n(c4=O)Cc4cc5ccccc5nc4-3)CC2)CSSC[C@@H](C(=O)N[C@H](C(N)=O)[C@@H](C)O)NC1=O [Example 14, Camptothecin-rvAla-Suc-(Doc)4-Aepa-D-Phe-c(Cys-Tyr-D-Trp-Lys-Abu-Cys)-Thr-NH2] | 276 min | 78 min |  | ≥ 1000 nM | ≥ 1000 nM | ≥ 1000 nM |  |  | 
3 | CC[C@@H]1NC(=O)[C@H](CCCCN)NC(=O)[C@@H](Cc2c[nH]c3ccccc23)NC(=O)[C@H](Cc2ccc(O)cc2)NC(=O)[C@@H](NC(=O)[C@@H](Cc2ccccc2)NC(=O)CN2CCN(CCNC(=O)COCCOCCNC(=O)COCCOCCNC(=O)COCCOCCNC(=O)COCCOCCNC(=O)CCC(=O)N[C@@H](CC3CCCCC3)C(=O)O[C@]3(CC)C(=O)OCc4c3cc3n(c4=O)Cc4cc5ccccc5nc4-3)CC2)CSSC[C@@H](C(=O)N[C@H](C(N)=O)[C@@H](C)O)NC1=O [Example 1, Camptothecin-rvCha-Suc-(Doc)4-Aepa-DPhe-c(Cys-Tyr-DTrp-Lys-Abu-Cys)-Thr-NH2] | 120 min | 282 min |  | ≥ 1000 nM | 155 nM | ≥ 1000 nM |  |  | 
4 | CCCC[C@H](NC(=O)[C@H](CC(C)C)NC(=O)[C@H](Cc1c[nH]cn1)NC(=O)CCNC(=O)[C@@H](NC(=O)[C@H](C)NC(=O)[C@H](Cc1c[nH]c2ccccc12)NC(=O)[C@H](CCC(N)=O)NC(=O)[C@@H](Cc1ccc(O)cc1)NC(=O)[C@@H](CO)NC(=O)CN1CCN(CCNC(=O)COCCOCCNC(=O)COCCOCCNC(=O)COCCOCCNC(=O)COCCOCCNC(=O)CCC(=O)NCC(=O)O[C@]2(CC)C(=O)OCc3c2cc2n(c3=O)Cc3cc4ccccc4nc3-2)CC1)C(C)C)C(N)=O [Example 27, Camptothecin-rvGly-Suc-(Doc)4-Aepa-D-Ser-D-Tyr-Gln-Trp-Ala-Val-β-Ala-His-Leu-Nle-NH2] ({X1-Gly-Suc-AEEA-AEEA-AEEA-AEEA}-[Pipz(1-CH2CO,4-CH2CH2NH)][dS][dY]QWAV[βAla]HL[Nle]-NH2) | 228 min | 270 min | 3.96 nM |  |  |  |  |  | 
5 | CC[C@@H]1NC(=O)[C@H](CCCCN)NC(=O)[C@@H](Cc2c[nH]c3ccccc23)NC(=O)[C@H](Cc2ccc(O)cc2)NC(=O)[C@@H](NC(=O)[C@@H](Cc2ccccc2)NC(=O)CN2CCN(CCNC(=O)COCCOCCNC(=O)COCCOCCNC(=O)COCCOCCNC(=O)COCCOCCNC(=O)CCC(=O)NCCCCC(=O)O[C@]3(CC)C(=O)OCc4c3cc3n(c4=O)Cc4cc5ccccc5nc4-3)CC2)CSSC[C@@H](C(=O)N[C@H](C(N)=O)[C@@H](C)O)NC1=O [Example 11, Camptothecin-rvApn-Suc-(Doc)4-Aepa-D-Phe-c(Cys-Tyr-D-Trp-Lys-Abu-Cys)-Thr-NH2] | 222 min | 300 min |  | ≥ 1000 nM |  | ≥ 1000 nM |  |  | 
6 | CC[C@@H]1NC(=O)[C@H](CCCCN)NC(=O)[C@@H](Cc2c[nH]c3ccccc23)NC(=O)[C@H](Cc2ccc(O)cc2)NC(=O)[C@@H](NC(=O)[C@@H](Cc2ccccc2)NC(=O)CN2CCN(CCNC(=O)COCCOCCNC(=O)COCCOCCNC(=O)COCCOCCNC(=O)COCCOCCNC(=O)CCC(=O)N[C@H](C(=O)O[C@]3(CC)C(=O)OCc4c3cc3n(c4=O)Cc4cc5ccccc5nc4-3)C(C)C)CC2)CSSC[C@@H](C(=O)N[C@H](C(N)=O)[C@@H](C)O)NC1=O [Example 15, Camptothecin-rvVal-Suc-(Doc)4-Aepa-D-Phe-c(Cys-Tyr-D-Trp-Lys-Abu-Cys)-Thr-NH2] | 300 min | 24 min |  | ≥ 1000 nM |  | ≥ 1000 nM |  |  | 
7 | Camptothecin-rvD-Asp-Suc-(Doc)4-Aepa-D-Phe-c(Cys-Tyr-D-Trp-Lys-Abu-Cys)-Thr-NH2 Camptothecin-rvAsp-Suc-(Doc)4-Aepa-D-Phe-c(Cys-Tyr-D-Trp-Lys-Abu-Cys)-Thr-NH2 [5A′] |  |  |  |  |  |  | ≥ 1000 nM | ≥ 1000 nM | ≥ 1000 nM
8 | CC[C@@H]1NC(=O)[C@H](CCCCN)NC(=O)[C@@H](Cc2c[nH]c3ccccc23)NC(=O)[C@H](Cc2ccc(O)cc2)NC(=O)[C@@H](NC(=O)[C@@H](Cc2ccccc2)NC(=O)CN2CCN(CCNC(=O)COCCOCCNC(=O)COCCOCCNC(=O)COCCOCCNC(=O)COCCOCCNC(=O)CCC(=O)N[C@@H](Cc3ccccc3)C(=O)O[C@]3(CC)C(=O)OCc4c3cc3n(c4=O)Cc4cc5ccccc5nc4-3)CC2)CSSC[C@@H](C(=O)N[C@H](C(N)=O)[C@@H](C)O)NC1=O [Example 10, Camptothecin-rvPhe-Suc-(Doc)4-Aepa-D-Phe-c(Cys-Tyr-D-Trp-Lys-Abu-Cys)-Thr-NH2] | 144 min | 18 min |  | ≥ 1000 nM |  | ≥ 1000 nM |  |  | 
9 | CC[C@@H]1NC(=O)[C@H](CCCCN)NC(=O)[C@@H](Cc2c[nH]c3ccccc23)NC(=O)[C@H](Cc2ccc(O)cc2)NC(=O)[C@@H](NC(=O)[C@@H](Cc2ccccc2)NC(=O)CN2CCN(CCNC(=O)COCCOCCNC(=O)COCCOCCNC(=O)COCCOCCNC(=O)COCCOCCNC(=O)CCC(=O)N[C@@H](CCCNC(=N)N)C(=O)O[C@]3(CC)C(=O)OCc4c3cc3n(c4=O)Cc4cc5ccccc5nc4-3)CC2)CSSC[C@@H](C(=O)N[C@H](C(N)=O)[C@@H](C)O)NC1=O [Example 7, Camptothecin-rvArg-Suc-(Doc)4-Aepa-D-Phe-c(Cys-Tyr-D-Trp-Lys-Abu-Cys)-Thr-NH2] | 72 min | 90 min |  | ≥ 1000 nM | 479 nM | ≥ 1000 nM |  |  | 
10 | CC[C@@H]1NC(=O)[C@H](CCCCN)NC(=O)[C@@H](Cc2c[nH]c3ccccc23)NC(=O)[C@H](Cc2ccc(O)cc2)NC(=O)[C@@H](NC(=O)[C@@H](Cc2ccccc2)NC(=O)CN2CCN(CCNC(=O)COCCOCCNC(=O)COCCOCCNC(=O)COCCOCCNC(=O)COCCOCCNC(=O)CCC(=O)N[C@@H](C(=O)O[C@]3(CC)C(=O)OCc4c3cc3n(c4=O)Cc4cc5ccccc5nc4-3)C(C)C)CC2)CSSC[C@@H](C(=O)N[C@H](C(N)=O)[C@@H](C)O)NC1=O [Example 13, Camptothecin-rvD-Val-Suc-(Doc)4-Aepa-D-Phe-c(Cys-Tyr-D-Trp-Lys-Abu-Cys)-Thr-NH2] | 462 min | 18 min |  | ≥ 1000 nM |  | ≥ 1000 nM |  |  | 
